Measured values: ChEMBL document CHEMBL1201862, “PubChem BioAssay data set” (2004)
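Values below derive from 48-hour exposures of cells grown in 96-well plates, with endpoints linearly interpolated between the two concentrations bracketing the appropriate inhibition level. GI50 marks 50% less growth.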 Calls of active or inactive are those of the source. Rule as the data show it: active = GI50 up to about 1.1 µM and inactive = higher.

Experiments:
Assay in all cases: NCI tumour cell line growth inhibition, 48 h
SK-MEL-2 = test system: SK-MEL-2
T47D = test system: T47D
IGROV-1 = test system: IGROV-1
EKVX = test system: EKVX
MDA-MB-231 = test system: MDA-MB-231
HT-29 = test system: HT-29
SNB-19 = test system: SNB-19
NCI-H226 = test system: NCI-H226
OVCAR-8 = test system: OVCAR-8
NCI-H23 = test system: NCI-H23
HCC 2998 = test system: HCC 2998
SF-268 = test system: SF-268
SR = test system: SR
PC-3 = test system: PC-3
CAKI-1 = test system: CAKI-1
MCF7 = test system: MCF7
UACC-62 = test system: UACC-62
SF-295 = test system: SF-295
SNB-75 = test system: SNB-75
K562 = test system: K562
Hs-578T = test system: Hs-578T
MDA-MB-435 = test system: MDA-MB-435
UACC-257 = test system: UACC-257
Malme-3M = test system: Malme-3M
OVCAR-4 = test system: OVCAR-4
SK-MEL-5 = test system: SK-MEL-5
OVCAR-5 = test system: OVCAR-5
M14 = test system: M14
OVCAR-3 = test system: OVCAR-3
DU-145 = test system: DU-145
SN12C = test system: SN12C
SK-MEL-28 = test system: SK-MEL-28
HOP-62 = test system: HOP-62
LOX IMVI = test system: LOX IMVI
RXF 393 = test system: RXF 393
SK-OV-3 = test system: SK-OV-3
MOLT-4 = test system: MOLT-4
UO-31 = test system: UO-31
NCI/ADR-RES = test system: NCI/ADR-RES
SF-539 = test system: SF-539
CCRF-CEM = test system: CCRF-CEM
U-251 = test system: U-251
HCT-116 = test system: HCT-116
KM12 = test system: KM12
HCT-15 = test system: HCT-15
NCI-H460 = test system: NCI-H460
TK-10 = test system: TK-10
NCI-H522 = test system: NCI-H522
A498 = test system: A498
MDA-N = test system: MDA-N
RPMI-8226 = test system: RPMI-8226
HL-60 = test system: HL-60
COLO 205 = test system: COLO 205
HOP-92 = test system: HOP-92
A549 = test system: A549
ACHN = test system: ACHN
SW-620 = test system: SW-620
BT-549 = test system: BT-549
786-0 = test system: 786-0

In the case of `CC(=O)Nc1ccc2[nH]c(C(=O)N3CC(CCl)c4c3cc(N)c3ccccc43)cc2c1` (stereo not given), the GI50 (SK-MEL-2) is reported as < 14.3 nM (active), the GI50 (T47D) is reported as < 16.4 nM (active) and the GI50 (IGROV-1) is reported as 14.3 nM (active). The GI50 (EKVX) was < 14.8 nM (active), the GI50 (MDA-MB-231) was < 23.7 nM (active) and the GI50 (HT-29) was < 12.7 nM (active). The GI50 (SNB-19) was < 21.7 nM (active), the GI50 (NCI-H226) was < 13.5 nM (active) and the GI50 (OVCAR-8) was < 13.3 nM (active). For the same compound, the GI50 (NCI-H23) was 10.2 nM (active), the GI50 (HCC 2998) was < 10 nM (active) and the GI50 (SF-268) was < 10 nM (active). For the same compound, the GI50 (SR) was < 10 nM (active), the GI50 (PC-3) was < 16 nM (active) and the GI50 (CAKI-1) was 12.9 nM (active). The GI50 (MCF7) was 10.7 nM (active), the GI50 (UACC-62) was 10.1 nM (active) and the GI50 (SF-295) was 13.5 nM (active). For the same compound, the GI50 (SNB-75) was < 10 nM (active), the GI50 (K562) was < 16.3 nM (active) and the GI50 (Hs-578T) was < 10 nM (active). For the same compound, the GI50 (MDA-MB-435) was 14.7 nM (active), the GI50 (UACC-257) was 17.2 nM (active) and the GI50 (Malme-3M) was < 10 nM (active). For the same compound, the GI50 (OVCAR-4) was < 10 nM (active), the GI50 (SK-MEL-5) was 11.5 nM (active) and the GI50 (OVCAR-5) was < 17.9 nM (active). The GI50 (M14) was 16.7 nM (active), the GI50 (OVCAR-3) was 18.9 nM (active) and the GI50 (DU-145) was < 10 nM (active). For the same compound, the GI50 (SN12C) was 11.8 nM (active), the GI50 (SK-MEL-28) was 16.1 nM (active) and the GI50 (HOP-62) was < 15.2 nM (active). The GI50 (LOX IMVI) was < 11.5 nM (active), the GI50 (RXF 393) was < 10 nM (active) and the GI50 (SK-OV-3) was 17.4 nM (active). For the same compound, the GI50 (MOLT-4) was < 11.5 nM (active), the GI50 (UO-31) was 14 nM (active) and the GI50 (NCI/ADR-RES) was 18.2 nM (active). For the same compound, the GI50 (SF-539) was 12.9 nM (active), the GI50 (CCRF-CEM) was < 10 nM (active) and the GI50 (U-251) was 14.3 nM (active). The GI50 (HCT-116) was 13.7 nM (active), the GI50 (KM12) was < 10 nM (active) and the GI50 (HCT-15) was 26.7 nM. For the same compound, the GI50 (NCI-H460) was < 10 nM (active), the GI50 (TK-10) was < 15.7 nM (active) and the GI50 (NCI-H522) was < 10 nM (active). The GI50 (A498) was 17.6 nM (active), the GI50 (MDA-N) was 17.7 nM (active) and the GI50 (RPMI-8226) was < 17.1 nM (active). For the same compound, the GI50 (HL-60) was < 10 nM (active), the GI50 (COLO 205) was 13.9 nM (active) and the GI50 (HOP-92) was < 19.1 nM (active). The GI50 (A549) was 12.8 nM (active), the GI50 (ACHN) was < 10 nM (active) and the GI50 (SW-620) was 11.8 nM (active). For the same compound, the GI50 (BT-549) was < 31.2 nM (active).
With `O=C1CC(c2ccccc2Cl)C2(C(=O)NC(=O)NC2=O)C(c2ccccc2Cl)C1` (stereo not given) the GI50 (SK-MEL-2) was 81100 nM (inactive), the GI50 (T47D) was 18800 nM (inactive) and the GI50 (IGROV-1) was 104 nM (active). The GI50 (EKVX) was 38600 nM (inactive), the GI50 (MDA-MB-231) was > 100000 nM (inactive) and the GI50 (HT-29) was > 100000 nM (inactive). For the same compound, the GI50 (SNB-19) was > 100000 nM (inactive), the GI50 (NCI-H226) was 65800 nM (inactive) and the GI50 (OVCAR-8) was > 100000 nM (inactive). The GI50 (NCI-H23) was > 100000 nM (inactive), the GI50 (HCC 2998) was 49200 nM (inactive) and the GI50 (SF-268) was 39400 nM (inactive). The GI50 (SR) was 58100 nM (inactive), the GI50 (PC-3) was > 100000 nM (inactive) and the GI50 (MCF7) was 54100 nM (inactive). For the same compound, the GI50 (UACC-62) was 46900 nM (inactive), the GI50 (SF-295) was > 100000 nM (inactive) and the GI50 (SNB-75) was > 100000 nM (inactive). For the same compound, the GI50 (K562) was > 100000 nM (inactive), the GI50 (Hs-578T) was 41400 nM (inactive) and the GI50 (MDA-MB-435) was 52600 nM (inactive). For the same compound, the GI50 (UACC-257) was > 100000 nM (inactive), the GI50 (Malme-3M) was 5050 nM (inactive) and the GI50 (OVCAR-4) was > 100000 nM (inactive). The GI50 (SK-MEL-5) was > 100000 nM (inactive), the GI50 (OVCAR-5) was > 100000 nM (inactive) and the GI50 (M14) was > 100000 nM (inactive). For the same compound, the GI50 (786-0) was > 100000 nM (inactive), the GI50 (OVCAR-3) was 32600 nM (inactive) and the GI50 (DU-145) was 39200 nM (inactive). The GI50 (SN12C) was > 100000 nM (inactive), the GI50 (SK-MEL-28) was > 100000 nM (inactive) and the GI50 (HOP-62) was > 100000 nM (inactive). For the same compound, the GI50 (LOX IMVI) was 51800 nM (inactive), the GI50 (RXF 393) was 29500 nM (inactive) and the GI50 (SK-OV-3) was 356 nM (active). For the same compound, the GI50 (MOLT-4) was > 100000 nM (inactive), the GI50 (UO-31) was > 100000 nM (inactive) and the GI50 (NCI/ADR-RES) was > 100000 nM (inactive). The GI50 (SF-539) was 76200 nM (inactive), the GI50 (CCRF-CEM) was > 100000 nM (inactive) and the GI50 (U-251) was > 100000 nM (inactive). The GI50 (HCT-116) was > 100000 nM (inactive), the GI50 (KM12) was > 100000 nM (inactive) and the GI50 (HCT-15) was over 100000 nM. For the same compound, the GI50 (NCI-H460) was 98400 nM (inactive), the GI50 (TK-10) was > 100000 nM (inactive) and the GI50 (NCI-H522) was > 100000 nM (inactive). The GI50 (A498) was > 100000 nM (inactive), the GI50 (MDA-N) was 78000 nM (inactive) and the GI50 (RPMI-8226) was 68200 nM (inactive). For the same compound, the GI50 (HL-60) was 80400 nM (inactive), the GI50 (HOP-92) was > 100000 nM (inactive) and the GI50 (A549) was 85300 nM (inactive). The GI50 (ACHN) was > 100000 nM (inactive), the GI50 (SW-620) was > 100000 nM (inactive) and the GI50 (BT-549) was > 100000 nM (inactive).
